# Measured values from patent publication US20210318318A1, “Kinase Activity In Tumors” (Institute For Cancer Research d/b/a The Research Institute …, priority 2018, published 2021).
# How the values were obtained:
# Format in all cases: cell-based, human
# [1] = system: COV362; assay: Short-term growth assay (CellTiter-Glo cell viability), kinase inhibitors; details: increasing concentrations, Cell Titer Glo
# Experimental: Cell viability was determined by Cell Titer Glo analysis.
# COV362 cells were treated with increasing concentrations of A-674563 and cell viability assessed by Cell Titer Glo according to manufacturer's instructions. Data represent the mean of six replicates.
# To explore the therapeutic potential of the HGSOC kinome signature, a detailed molecular analysis of protein levels/activity, growth and survival functions was carried out in a panel of recently validated HGSOC cell lines (Coscia et al., Nat. Commun., 2016, 7, 12645) that harbor commonly encountered HGSOC mutations and genetic rearrangements (see, FIG. 5A).
# For short-term growth assays, 3000-5000 cells were plated per well in 96-well plates and allowed to adhere and equilibrate overnight. Drug was added the following morning and after 120 hours of drug treatment, cell viability was assessed using the CellTiter-Glo Luminescent cell viability assay according to manufacturer (Promega). Students t tests were performed for statistical analyses and p values ≤0.05 were considered significant. For colony formation assays, cells were plated in 24-well dishes (3000-5000 cells per well) and incubated overnight before continuous drug treatment for 14 days, with drug and media replaced twice weekly. At the end of treatment, cells were rinsed with PBS and fixed with chilled methanol for 10 minutes at −20° C. Methanol was removed by aspiration, and cells were stained with 0.5% crystal violet in 20% methanol for 20 minutes at room temperature, washed with distilled water, and scanned.
# [2] = system: FAK1, MLC and Paxillin phosphorylation; FAK1 and CHEK1 protein levels; assay: Western blot of signaling in inhibitor-treated HGSOC cells; details: 48 hours
# Experimental: COV362 cells were treated with 0.5, 1 or 3 μM of A-674563 or SB-772077 for 48 hours and signaling monitored by western blot.
# Samples were harvested in MIB lysis buffer, subjected to SDS-PAGE […] and transferred to PVDF membranes before western blotting with primary antibodies. For pMYPT and pMLC blots, cells were harvested in a buffer containing 1% (w/v) SDS, 50 mM Tris pH 7.5 supplemented with protease and phosphatase inhibitors buffer and were passed through QIAshredder columns (Qiagen, 79654), (Unbekandt et al., Cell Commun. Signal., 2014, 12, 54). For the list of primary antibodies used, see Table 4. Secondary HRP-anti-rabbit and HRP-anti-mouse were obtained from ThermoFisher Scientific. SuperSignal West Pico and Femto Chemiluminescent Substrates (Thermo) were used to visualize blots.
# [3] = system: HGSOC cells; assay: Apoptosis in inhibitor-treated HGSOC cells; details: increasing doses
# [4] = system: COV362 cells; assay: Migration assay (xCELLigence RTCA); details: 1 μM, 24 hour period
# Experimental: COV362 cells were treated with 1 μM of A-674563 or DMSO and migration monitored over a 24 hour period using the xCELLigence Real-Time Cell Analyzer (RTCA).
# Cell migration assays were performed using the xCELLigence RTCA DP Instrument (ACEA Biosciences) in a CIM-Plate 16 (ACEA Biosciences). Complete medium was added to the lower chambers of the CIM-Plate (or serum free medium for negative control). In the upper chambers, 30 μL serum free medium was added to each well and the CIM-Plate was placed in the instrument to equilibrate for 1 hr at 37° C. Following this equilibration step, a background measurement was taken. The CIM-Plate was removed from the instrument, and COV362 cells were added to the upper chambers at 50,000 cells per well in serum free medium. The CIM-Plate was left at 25° C. for 30 minutes to allow the cells to settle at the bottom of the well. The plate was then returned to the instrument, and cell index reads were taken once every 15 minutes for 24 hours. For the siRNA experiment, the cells were transfected 24 hours prior to the start of the assay. For the A-674563 experiment, cells were pretreated with 1 μM inhibitor or DMSO 24 hours prior, and both upper and lower chambers contained 1 μM inhibitor or DMSO.
smiles,measurement,setting,value
Cc1[nH]nc2ccc(-c3cncc(OC[C@@H](N)Cc4ccccc4)c3)cc12 [A-674563],cell viability,[1],inhibited cell viability
same,FAK1 and CHEK1 protein levels,"[2]; HGSOC (COV362) cells, 0.5, 1 or 3 μM",uniquely reduced
same,"FAK1, MLC and Paxillin phosphorylation","[2]; HGSOC (COV362) cells, increasing doses 0.5, 1 or 3 μM",inhibited
same,apoptosis,[3],induced apoptosis
same,cell migration,[4],reduced cell migration
